In PubChem BioAssay (NCI) one finds TGI data, which are given here for eight compounds.

Holding throughout (assay): NCI tumour cell line growth inhibition, 48 h
Assay [1] has as its system A498 renal.
The subject of assay [2] is BT-549 breast.
Assay [3] relates to CAKI-1 renal.
Assay [4] concerns HCT-116 colon.
Assay [5] relates to HOP-62 NSCLC.
The test system of assay [6] is HT29 colon.
The subject of assay [7] is MALME-3M melanoma.
Assay [8] concerns NCI-H23 lung.
Assay [9] relates to NCI-H460 lung.
For assay [10], the system named is NCI-H522 lung.
For assay [11], the system named is OVCAR-3 ovarian.
Assay [12] relates to SF-295 CNS.
Assay [13] concerns SK-MEL-28 melanoma.
The subject of assay [14] is SNB-19 CNS.
Assay [15] deals with SNB-75 CNS.
Assay [16] deals with T-47D breast.
Assay [17] has as its system U251 CNS.

The structures appear in SMILES notation.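 Interpolation was linear, between the two tested concentrations surrounding the appropriate level; five concentrations were tested over 48 hours in 96-well plates. TGI denotes the concentration required for complete inhibition of growth.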

Turning to `COC(=O)c1ccccc1/C=C1\Cc2c(C)c3c(c(C)c2C1=O)CCC3`, the TGI in assay [1], in assay [2], in assay [3], in assay [4], in assay [5] and in assay [6] was > 100 µM in each case. Also, the TGI in assay [7], in assay [8], in [9], in assay [10], in assay [11] and in [12] was > 100 µM in each case. The TGI in assay [13], in assay [14], in assay [15], in assay [16] and in [17] was > 100 µM in each case.
Regarding `C[N+]12CCCCC1C(COc1cccc3cccnc13)CCC2` (stereo unspecified), the TGI in assay [1], in assay [2], in assay [3], in [4], in assay [5] and in [6] was > 100 µM in each case. Moreover, the TGI in assay [7], in assay [8], in assay [9], in assay [10], in assay [11] and in [12] was > 100 µM throughout. Moreover, the TGI in assay [13], in [14], in assay [15], in assay [16] and in assay [17] was > 100 µM in each case.
`COC(=O)C1C2OC(C)(C)OC2CN1S(=O)(=O)c1ccc(C)cc1` (stereo unspecified): the TGI in [1], in [2], in assay [3], in assay [4], in assay [5] and in assay [6] was > 100 µM each time. In addition, the TGI in assay [7], in [8], in assay [9], in assay [10], in assay [11] and in assay [12] was > 100 µM each time. Further, the TGI in assay [13], in assay [14], in [15], in assay [16] and in assay [17] was > 100 µM throughout.
With `COc1nn(Cc2ccccn2)c2ccc([N+](=O)[O-])cc12`, the TGI in assay [1], in assay [2], in assay [3], in [4], in assay [5] and in assay [6] was > 100 µM throughout. The TGI in [7], in assay [8], in assay [9], in assay [10], in assay [11] and in assay [12] was > 100 µM throughout. The TGI in assay [13] is > 100 µM; in [14] it was > 100 µM; in assay [15], 93 µM; in assay [16] it was > 100 µM; in [17] it was > 100 µM.
For `CC(=O)OCC1OC(NC(=S)Nn2c(=O)[nH]c3ccccc3c2=O)C(OC(C)=O)C(OC(C)=O)C1OC(C)=O` (stereo unspecified), the TGI in assay [1], in [2], in [3], in assay [4], in [5] and in assay [6] was > 100 µM throughout. Besides, the TGI in assay [7], in assay [8], in assay [9], in assay [10], in assay [11] and in [12] was > 100 µM throughout. For the same compound, the TGI in assay [13], in [14], in assay [15], in [16] and in assay [17] was > 100 µM each time.
`CC(C)OC(=O)c1ccc(NCC2=CC(=O)C=CC2=O)cc1`: the TGI is 90.3 µM in assay [1]; 26.1 µM in assay [2]; 11.1 µM in [3]; 28.6 µM in assay [4]; > 100 µM in [5]; 32.7 µM in assay [6]. Further, the TGI in assay [7] is 22.7 µM; in assay [8], 29 µM; in [9], > 100 µM; in [10] it was 3.27 µM; in assay [11], 21.6 µM; in assay [12] it was > 83.1 µM. Further, the TGI was 33 µM in assay [13]; > 100 µM in assay [14]; 76.3 µM in assay [15]; 7.95 µM in assay [16]; 31.3 µM in assay [17].
Regarding `O=C1c2ccccc2-c2nnc(-c3ccc([N+](=O)[O-])cc3)cc21`, the TGI in [1], in assay [2], in assay [3], in assay [4], in [5] and in [6] was > 10 µM throughout. Moreover, the TGI in assay [7], in [8], in assay [9], in assay [10], in assay [11] and in [12] was > 10 µM each time. In addition, the TGI in [13], in [14], in assay [15], in [16] and in [17] was > 10 µM each time.
Take `CC(NC(=O)OCc1ccccc1)NC(=O)OC(C)(C)C` (stereo unspecified): the TGI in [1], in [2], in assay [3], in assay [4], in assay [5] and in assay [6] was > 100 µM in each case. The TGI in assay [7], in [8], in [9], in assay [10], in assay [11] and in assay [12] was > 100 µM in each case. In addition, the TGI in assay [13], in assay [14], in assay [15], in assay [16] and in assay [17] was > 100 µM each time.
